Experiment: Transcutaneous passage kinetics of calixarene in Franz cell
Type: in vitro ADME, pig
Settings: released from 1 ml nanoemulsion loaded with 4 mg/g calixarene; 24 hours exposure; occlusive; HPLC LD=17 ng/ml, LQ=52 ng/ml

1,3,5-O-Me-2,4,6-OCH2COOH-p-tert-butylcalix[6]arene [calixarene]
transcutaneous passage of calixarene: did not pass through the skin
